Test results taken from patent publication US10344017B2, “Pyrrolcarboxamide derivatives for the inhibition of ERK5” (CANCER RESEARCH TECHNOLOGY LIMITED, priority 2014, dated 2019).

Biological target: T1, ERK5 (Homo sapiens, UniProt Q13164)
T1 construct: made in house
Assay: ERK5 IMAP assay (fluorescence polarisation)
Format: biochemical
Conditions: average (e.g. geometric mean) where more than one data point; read-out: ERK5 IC50

T1 sequence (Q13164 whole entry): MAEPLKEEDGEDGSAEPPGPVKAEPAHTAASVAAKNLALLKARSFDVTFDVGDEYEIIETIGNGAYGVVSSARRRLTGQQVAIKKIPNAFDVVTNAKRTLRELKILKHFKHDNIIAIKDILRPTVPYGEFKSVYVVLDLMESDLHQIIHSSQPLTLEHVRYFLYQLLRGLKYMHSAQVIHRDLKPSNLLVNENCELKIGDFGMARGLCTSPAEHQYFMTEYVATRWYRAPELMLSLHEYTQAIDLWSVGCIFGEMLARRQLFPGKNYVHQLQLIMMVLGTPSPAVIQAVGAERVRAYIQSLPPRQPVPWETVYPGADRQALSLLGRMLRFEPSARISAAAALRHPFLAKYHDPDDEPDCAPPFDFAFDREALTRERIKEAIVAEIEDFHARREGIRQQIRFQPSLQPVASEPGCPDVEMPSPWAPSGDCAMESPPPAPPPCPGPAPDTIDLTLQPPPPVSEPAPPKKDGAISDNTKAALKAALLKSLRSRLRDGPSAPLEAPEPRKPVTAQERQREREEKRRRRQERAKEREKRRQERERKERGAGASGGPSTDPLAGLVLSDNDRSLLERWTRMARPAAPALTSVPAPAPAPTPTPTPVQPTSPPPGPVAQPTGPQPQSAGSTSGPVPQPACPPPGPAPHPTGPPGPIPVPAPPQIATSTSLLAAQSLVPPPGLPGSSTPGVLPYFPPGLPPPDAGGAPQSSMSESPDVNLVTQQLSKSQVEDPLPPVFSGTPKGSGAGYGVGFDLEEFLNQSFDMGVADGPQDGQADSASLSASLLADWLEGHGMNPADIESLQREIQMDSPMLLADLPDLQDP

Structure (SMILES) | IC50
O=C(Nc1ccc(F)nc1)c1cc(C(=O)c2c(F)cccc2Br)c[nH]1 [Example 153, 4-(2-Bromo-6-fluorobenzoyl)-N-(6-fluoropyridin-3-yl)-1H-pyrrole-2-carboxamide] | 1.7 µM
O=C(NC1CCNC1)c1cc(C(=O)c2c(F)cccc2F)c[nH]1 (centres unmarked) [Example 125, 4-(2,6-Difluorobenzoyl)-N-(pyrrolidin-3-yl)-1H-pyrrole-2-carboxamide] | 31 µM
O=C(Nc1cc[n+]([O-])cc1)c1cc(C(=O)c2c(F)cccc2F)c[nH]1 [Example 127, 4-(4-(2,6-Difluorobenzoyl)-1H-pyrrole-2-carboxamido)pyridine 1-oxide] | 11.5 µM
CCCc1ccncc1NC(=O)c1cc(C(=O)c2c(Cl)ccc(Cl)c2F)c[nH]1 [Example 95, 4-(3,6-Dichloro-2-fluorobenzoyl)-N-(4-propylpyridin-3-yl)-1H-pyrrole-2-carboxamide] | 2.82 µM
CCCc1ncccc1NC(=O)c1cc(C(=O)c2c(Cl)ccc(Cl)c2F)c[nH]1 [Example 83, 4-(3,6-Dichloro-2-fluorobenzoyl)-N-(2-propylpyridin-3-yl)-1H-pyrrole-2-carboxamide] | 3.54 µM
CCc1ccncc1NC(=O)c1cc(C(=O)c2c(F)cccc2Cl)c[nH]1 [Example 88, 4-(2-Chloro-6-fluorobenzoyl)-N-(4-ethylpyridin-3-yl)-1H-pyrrole-2-carboxamide] | 2.14 µM
CCc1cccc(F)c1C(=O)c1c[nH]c(C(=O)Nc2cccnc2)c1 [Example 199, 4-(2-Ethyl-6-fluorobenzoyl)-N-(pyridin-3-yl)-1H-pyrrole-2-carboxamide] | 12.7 µM
CCc1cccc(F)c1C(=O)c1c[nH]c(C(=O)NC2CCN(C)CC2)c1 [Example 201, 4-(2-Ethyl-6-fluorobenzoyl)-N-(1-methylpiperidin-4-yl)-1H-pyrrole-2-carboxamide] | 4.97 µM
O=C(Nc1cccnc1)c1cc(C(=O)c2c(F)ccc(C(=O)O)c2F)c[nH]1 [Example 266, 2,4-difluoro-3-(5-(pyridin-3-ylcarbamoyl)-1H-pyrrole-3-carbonyl) benzoic Acid] | 1.93 µM
CCCc1ccncc1NC(=O)c1cc(C(=O)c2c(F)cccc2Cl)c[nH]1 [Example 89, 4-(2-Chloro-6-fluorobenzoyl)-N-(4-propylpyridin-3-yl)-1H-pyrrole-2-carboxamide] | 3.34 µM
O=C(Nc1ccc[n+]([O-])c1)c1cc(C(=O)c2c(F)cccc2F)c[nH]1 [Example 128, 3-(4-(2,6-Difluorobenzoyl)-1H-pyrrole-2-carboxamido)pyridine 1-oxide] | 13.8 µM
Cc1ccc(F)c(C(=O)c2c[nH]c(C(=O)NC3CCN(C)CC3)c2)c1 [Example 234, 4-(2-Fluoro-5-methylbenzoyl)-N-(1-methylpiperidin-4-yl)-1H-pyrrole-2-carboxamide] | 4.37 µM
CCc1cccc(F)c1C(=O)c1c[nH]c(C(=O)NC2CCNCC2)c1 [Example 200, 4-(2-Ethyl-6-fluorobenzoyl)-N-(piperidin-4-yl)-1H-pyrrole-2-carboxamide] | 4.98 µM
O=C(Nc1cnc(N2CCC(O)CC2)nc1)c1cc(C(=O)c2c(F)cccc2Cl)c[nH]1 [Example 28, 4-(2-Chloro-6-fluorobenzoyl)-N-(2-(4-hydroxypiperidin-1-yl)pyrimidin-5-yl)-1H-pyrrole-2-carboxamide] | 2.23 µM

Now those with a lower IC50, led by results:

IC50 | Structure (SMILES)
1.54 µM | O=C(Nc1ccc2cn[nH]c2c1)c1cc(C(=O)c2c(F)cccc2Cl)c[nH]1 [Example 156, 4-(2-Chloro-6-fluorobenzoyl)-N-(1H-indazol-6-yl)-1H-pyrrole-2-carboxamide]
0.093 µM | CN1CCC(Nc2ncc(NC(=O)c3cc(C(=O)c4c(F)cccc4Cl)c[nH]3)cn2)CC1 [Example 23, 4-(2-Chloro-6-fluorobenzoyl)-N-(2-((1-methylpiperidin-4-yl)amino)pyrimidin-5-yl)-1H-pyrrole-2-carboxamide]
0.483 µM | Cc1ccncc1NC(=O)c1cc(C(=O)c2c(Cl)ccc(Cl)c2F)c[nH]1 [Example 93, 4-(3,6-Dichloro-2-fluorobenzoyl)-N-(4-methylpyridin-3-yl)-1H-pyrrole-2-carboxamide]
1.03 µM | Cc1ccc(NC(=O)c2cc(C(=O)c3c(F)cccc3Cl)c[nH]2)cn1 [Example 150, 4-(2-Chloro-6-fluorobenzoyl)-N-(6-methylpyridin-3-yl)-1H-pyrrole-2-carboxamide]
0.0807 µM | O=C(Nc1cnn(Cc2ccccn2)c1)c1cc(C(=O)c2c(Cl)ccc(Cl)c2F)c[nH]1 [Example 48, 4-(3,6-Dichloro-2-fluorobenzoyl)-N-(1-(pyridin-2-ylmethyl)-1H-pyrazol-4-yl)-1H-pyrrole-2-carboxamide]
0.0199 µM | COc1ccc(Cl)c(C(=O)c2c[nH]c(C(=O)Nc3cnn(CC4CCN(C)CC4)c3)c2)c1F [Example 68, 4-(6-Chloro-2-fluoro-3-methoxybenzoyl)-N-(1-((1-methylpiperidin-4-yl)methyl)-1H-pyrazol-4-yl)-1H-pyrrole-2-carboxamide]
0.399 µM | Cc1ccc(F)c(C(=O)c2c[nH]c(C(=O)NC3CCN(C)CC3)c2)c1F [Example 220, 4-(2,6-Difluoro-3-methylbenzoyl)-N-(1-methylpiperidin-4-yl)-1H-pyrrole-2-carboxamide]
0.0218 µM | COc1ccc(Cl)c(C(=O)c2c[nH]c(C(=O)Nc3ccc(CN4CCOCC4)nc3)c2)c1F [Example 116, 4-(6-Chloro-2-fluoro-3-methoxybenzoyl)-N-(6-(morpholinomethyl)pyridin-3-yl)-1H-pyrrole-2-carboxamide]
0.202 µM | COc1ccc(Cl)c(C(=O)c2c[nH]c(C(=O)Nc3cncnc3)c2)c1F [Example 74, 4-(6-chloro-2-fluoro-3-methoxybenzoyl)-N-(pyrimidin-5-yl)-1H-pyrrole-2-carboxamide]
0.0583 µM | Cn1cc(NC(=O)c2cc(C(=O)c3c(Cl)ccc(OC4COC4)c3F)c[nH]2)cn1 [Example 273, 4-(6-Chloro-2-fluoro-3-(oxetan-3-yloxy)benzoyl)-N-(1-methyl-1H-pyrazol-4-yl)-1H-pyrrole-2-carboxamide]
0.0665 µM | O=C(Nc1cccnc1)c1cc(C(=O)c2c(Cl)ccc(Br)c2F)c[nH]1 [Example 181, 4-(3-Bromo-6-chloro-2-fluorobenzoyl)-N-(pyridin-3-yl)-1H-pyrrole-2-carboxamide]
0.0612 µM | O=C(Nc1cnn(CCO)c1)c1cc(C(=O)c2c(Cl)ccc(Cl)c2F)c[nH]1 [Example 235, 4-(3,6-Dichloro-2-fluorobenzo)-N-(1-(2-hydroxyethyl)-1H-pyrazol-4-yl)-1H-pyrrole-2-carboxamide]
0.115 µM | CN1CCC(NC(=O)c2cc(C(=O)c3c(Cl)ccc(Cl)c3F)c[nH]2)CC1 [Example 174, 4-(3,6-dichloro-2-fluorobenzoyl)-N-(1-methylpiperidin-4-yl)-1H-pyrrole-2-carboxamide]
0.779 µM | Cc1ccc(F)c(C(=O)c2c[nH]c(C(=O)Nc3cncnc3)c2)c1F [Example 218, 4-(2,6-Difluoro-3-methylbenzoyl)-N-(pyrimidin-5-yl)-1H-pyrrole-2-carboxamide]
1.19 µM | COCCOc1ccc(Cl)c(C(=O)c2c[nH]c(C(=O)Nc3cnn(C)c3)c2)c1F [Example 260, 4-(6-Chloro-2-fluoro-3-(2-methoxyethoxy)benzoyl)-N-(1-methyl-1H-pyrazol-4-yl)-1H-pyrrole-2-carboxamide]
